Assay results as given in patent US10611731B2, “5-methyl-6-phenyl-4,5-dihydro-2H-pyridazin-3-one derivative” (OTSUKA PHARMACEUTICAL CO., LTD., priority 2016, dated 2020).

Each molecule was assayed on human childhood brain tumor cell lines (PFSK-1) (assay: Growth inhibitory activity against PFSK-1 cells (WST-8, Cell Counting Kit-8)). Conditions: Homo sapiens, 72 h, 3 days incubation with test compound, WST-8 OD 450/630 nm, read-out: IC50 (concentration inhibiting 50% of the cell growth).
Format: cell-based
Method: The growth inhibitory activity against human childhood brain tumor cell lines (PFSK-1) was measured with WST-8 reagent [2-(2-methoxy-4-nitrophenyl)-3-(4-nitrophenyl)-5-(2,4-disulfophenyl)-2H-tetrazolium monosodium salt, Cell Counting Kit-8™], according to the method described in Tominaga, H. et al., Anal. Commun., 1999, 36, 47-50. Briefly, PFSK-1 was seeded in 96-well microplate at 100 μL/well with Roswell Park Memorial Institute (RPMI) 1640 medium containing 10% fetal bovine serum (FBS), and the cells were incubated in the presence of 5% carbon dioxide (CO2) at 37° C. for 24 hours. 50 μL of each test compound diluted with the medium was added to each well, and then the cells were incubated further for 3 days. After the incubation, 15 μL of Cell Counting Kit-8™ was added to each well, and the cells were incubated for one and half hours. Then, optical density (OD) values at measurement wavelength 450 nm and reference wavelength 630 nm were measured and the difference thereof was calculated. From the calculated difference, the OD value difference (at measurement wavelength 450 nm and reference wavelength 630 nm) of the control well which includes no cell was subtracted to afford cell-growth activity in each well.
The cell growth inhibitory activity of each test compound was calculated by comparing the cell-growth activity with each test compound to the cell-growth activity without any test compound (control), and each IC50 (nM) which is the concentration inhibiting 50% of the cell growth was calculated.

Row | IC50 [nM] | SMILES
1 | 2.7 | CC1CC(=O)NN=C1c1cc(F)c(OCC(F)(F)CO)c(Cl)c1F (stereo not drawn) [Example 161, 6-[3-Chloro-4-(2,2-difluoro-3-hydroxypropoxy)-2,5-difluorophenyl]-5-methyl-4,5-dihydro-2H-pyridazin-3-one]
2 | 2.3 | CC1CC(=O)NN=C1c1ccc(OCC2(O)CC2)c(Br)c1F (stereo not drawn) [Example 168, 6-{3-Bromo-2-fluoro-4-[(1-hydroxycyclopropyl)methoxy]phenyl}-5-methyl-4,5-dihydro-2H-pyridazin-3-one]
3 | 2.2 | Cc1cc(C2=NNC(=O)CC2C)cc(Cl)c1OC[C@H]1C[C@H]1CO (relative stereo) [Example 155, 6-(3-Chloro-4-{[(1 S*,2R*)-2-(hydroxymethyl)cyclopropyl]methoxy}-5-methylphenyl)-5-methyl-4,5-dihydro-2H-pyridazin-3-one]
4 | 5.2 | Cc1c(F)c(C2=NNC(=O)CC2C)cc(Cl)c1OCC(C)(C)CO (stereo not drawn) [Example 136, 6-[5-Chloro-2-fluoro-4-(3-hydroxy-2,2-dimethylpropoxy)-3-methylphenyl]-5-methyl-4,5-dihydro-2H-pyridazin-3-one]
5 | 1.1 | CC1CC(=O)NN=C1c1cc(Cl)c(OCC(C)(C)O)c(Br)c1 (stereo not drawn) [Example 1, 6-[3-bromo-5-chloro-4-(2-hydroxy-2-methylpropoxy)phenyl]-5-methyl-4,5-dihydro-2H-pyridazin-3-one]
6 | 1.3 | CC1CC(=O)NN=C1c1ccc(OCCCO)c(Cl)c1F (stereo not drawn) [Example 19, 6-[3-chloro-2-fluoro-4-(3-hydroxypropoxy)phenyl]-5-methyl-4,5-dihydro-2H-pyridazin-3-one]
7 | 9.2 | Cc1c(O)c(C2=NNC(=O)CC2C)cc(Cl)c1OCC1(O)CC1 (stereo not drawn) [Example 176, 6-{5-Chloro-2-hydroxy-4-[(1-hydroxycyclopropyl)methoxy]-3-methylphenyl}-5-methyl-4,5-dihydro-2H-pyridazin-3-one]
8 | 1.6 | CC1CC(=O)NN=C1c1cc(Cl)c(OCC(F)(F)CO)c(Cl)c1 (stereo not drawn) [Example 109, 6-[3,5-dichloro-4-(2,2-difluoro-3-hydroxypropoxy)phenyl]-5-methyl-4,5-dihydro-2H-pyridazin-3-one]
9 | < 1 | CC(O)COc1c(Cl)cc(C2=NNC(=O)CC2C)cc1Br (stereo not drawn) [Example 57, 6-[3-bromo-5-chloro-4-(2-hydroxypropoxy)phenyl]-5-methyl-4,5-dihydro-2H-pyridazin-3-one]
10 | 4 | CC1CC(=O)NN=C1c1cc(F)c(OCC2(O)CC2)c(Br)c1 (stereo not drawn) [Example 169, 6-{3-Bromo-5-fluoro-4-[(1-hydroxycyclopropyl)methoxy]phenyl}-5-methyl-4,5-dihydro-2H-pyridazin-3-one]
11 | 3.8 | C[C@@H]1CC(=O)NN=C1c1cc(F)c(OCCCO)c(F)c1 [Example 121, (5R)-(−)-6-[3,5-Difluoro-4-(3-hydroxypropoxy)phenyl]-5-methyl-4,5-dihydro-2H-pyridazin-3-one]
12 | 7.9 | CC1CC(=O)NN=C1c1ccc(OCC(F)(F)CO)c(Cl)c1F (stereo not drawn) [Example 110, 6-[3-Chloro-4-(2,2-difluoro-3-hydroxypropoxy)-2-fluorophenyl]-5-methyl-4,5-dihydro-2H-pyridazin-3-one]
13 | 3.9 | C=Cc1c(OC/C=C\CO)ccc(C2=NNC(=O)CC2C)c1F (stereo not drawn) [Example 96, 6-{2-Fluoro-4-[(Z)-4-hydroxy-2-butenyloxy]-3-vinylphenyl}-5-methyl-4,5-dihydro-2H-pyridazin-3-one]
14 | 4.7 | CCc1c(OCC(C)O)ccc(C2=NNC(=O)CC2C)c1F (stereo not drawn) [Example 60, 6-[3-Ethyl-2-fluoro-4-(2-hydroxypropoxy)phenyl]-5-methyl-4,5-dihydro-2H-pyridazin-3-one]
15 | 4.6 | Cc1cc(C2=NNC(=O)CC2C)cc(Cl)c1OC/C=C\CO (stereo not drawn) [Example 86, 6-{3-Chloro-4-[(Z)-4-hydroxy-2-butenyloxy]-5-methylphenyl}-5-methyl-4,5-dihydro-2H-pyridazin-3-one]
16 | 3 | CC1CC(=O)NN=C1c1cc(F)c(OC/C=C\CO)c(Br)c1 (stereo not drawn) [Example 95, 6-{3-Bromo-5-fluoro-4-[(Z)-4-hydroxy-2-butenyloxy]phenyl}-5-methyl-4,5-dihydro-2H-pyridazin-3-one]
17 | 5.2 | CC(O)COc1ccc(C2=NNC(=O)CC2C)c(F)c1C#N (stereo not drawn) [Example 104, 2-fluoro-6-(2-hydroxypropoxy)-3-(4-methyl-6-oxo-4,5-dihydro-1H-pyridazin-3-yl)benzonitrile]
18 | 1 | CC1CC(=O)NN=C1c1cc(Cl)c(OCC(C)(C)O)c(Cl)c1 (stereo not drawn) [Example 2, 6-[3,5-dichloro-4-(2-hydroxy-2-methylpropoxy)phenyl]-5-methyl-4,5-dihydro-2H-pyridazin-3-one]
19 | 4.6 | Cc1cc(C2=NNC(=O)CC2C)c(F)c(C)c1OCCCO (stereo not drawn) [Example 141, 6-[2-Fluoro-4-(3-hydroxypropoxy)-3,5-dimethylphenyl]-5-methyl-4,5-dihydro-2H-pyridazin-3-one]
20 | 4.1 | Cc1c(OCC(C)O)ccc(C2=NNC(=O)CC2C)c1O (stereo not drawn) [Example 74, 6-[2-hydroxy-4-(2-hydroxypropoxy)-3-methylphenyl]-5-methyl-4,5-dihydro-2H-pyridazin-3-one]
21 | 2.8 | CC(O)COc1ccc(C2=NNC(=O)CC2C)c(F)c1F (stereo not drawn) [Example 49, 6-[2,3-Difluoro-4-(2-hydroxypropoxy)phenyl]-5-methyl-4,5-dihydro-2H-pyridazin-3-one]
22 | 2 | CC1CC(=O)NN=C1c1cc(F)c(OCC(C)(C)O)c(Br)c1 (stereo not drawn) [Example 26, 6-[3-bromo-5-fluoro-4-(2-hydroxy-2-methylpropoxy)phenyl]-5-methyl-4,5-dihydro-2H-pyridazin-3-one]
23 | 1 | Cc1cc(C2=NNC(=O)CC2C)c(F)c(Cl)c1OCC(C)(C)O (stereo not drawn) [Example 36, 6-[3-chloro-2-fluoro-4-(2-hydroxy-2-methylpropoxy)-5-methylphenyl]-5-methyl-4,5-dihydro-2H-pyridazin-3-one]
24 | 5.3 | Cc1c(OC/C=C\CO)ccc(C2=NNC(=O)CC2C)c1O (stereo not drawn) [Example 153, 6-{2-Hydroxy-4-[(Z)-4-hydroxy-2-butenyloxy]-3-methylphenyl}-5-methyl-4,5-dihydro-2H-pyridazin-3-one]
25 | 4.1 | CC1CC(=O)NN=C1c1ccc(OCC(F)(F)CO)c(F)c1F (stereo not drawn) [Example 108, 6-[4-(2,2-Difluoro-3-hydroxypropoxy)-2,3-difluorophenyl]-5-methyl-4,5-dihydro-2H-pyridazin-3-one]
26 | 2.7 | CC1CC(=O)NN=C1c1ccc(OC/C=C\CO)c(Cl)c1F (stereo not drawn) [Example 76, 6-{3-chloro-2-fluoro-4-[(Z)-4-hydroxy-2-butenyloxy]phenyl}-5-methyl-4,5-dihydro-2H-pyridazin-3-one]
27 | 3.9 | CC1CC(=O)NN=C1c1ccc(OC/C=C/CO)c(Cl)c1F (stereo not drawn) [Example 90, 6-[3-Chloro-2-fluoro-4-[(E)-4-hydroxy-2-butenyloxy]phenyl}-5-methyl-4,5-dihydro-2H-pyridazin-3-one]
28 | 1 | CC1CC(=O)NN=C1c1cc(F)c(OCC(C)(C)CO)c(Cl)c1 (stereo not drawn) [Example 7, 6-[3-chloro-5-fluoro-4-(3-hydroxy-2,2-dimethylpropoxy)phenyl]-5-methyl-4,5-dihydro-2H-pyridazin-3-one]

Row | SMILES | IC50 [nM]
29 | Cc1c(OCCCCO)ccc(C2=NNC(=O)CC2C)c1F (stereo not drawn) [Example 83, 6-[2-Fluoro-4-(4-hydroxybutoxy)-3-methylphenyl]-5-methyl-4,5-dihydro-2H-pyridazin-3-one] | 6.6
30 | CCC(O)COc1c(C)cc(C2=NNC(=O)CC2C)cc1Cl (stereo not drawn) [Example 65, 6-[3-Chloro-4-(2-hydroxybutoxy)-5-methylphenyl]-5-methyl-4,5-dihydro-2H-pyridazin-3-one] | 4.3
31 | Cc1cc(C2=NNC(=O)CC2C)cc(F)c1OCC(C)(C)CCO (stereo not drawn) [Example 101, 6-[3-Fluoro-4-(4-hydroxy-2,2-dimethylbutoxy)-5-methylphenyl]-5-methyl-4,5-dihydro-2H-pyridazin-3-one] | 7.5
32 | CCC(O)COc1ccc(C2=NNC(=O)CC2C)c(F)c1Cl (stereo not drawn) [Example 64, 6-[3-chloro-2-fluoro-4-(2-hydroxybutoxy)phenyl]-5-methyl-4,5-dihydro-2H-pyridazin-3-one] | 2.1
33 | CC1CC(=O)NN=C1c1cc(F)c(OCCCCO)c(Br)c1 (stereo not drawn) [Example 80, 6-[3-Bromo-5-fluoro-4-(4-hydroxybutoxy)phenyl]-5-methyl-4,5-dihydro-2H-pyridazin-3-one] | 5.1
34 | Cc1cc(C2=NNC(=O)CC2C)cc(Cl)c1OCC(C)(C)CCO (stereo not drawn) [Example 98, 6-[3-chloro-4-(4-hydroxy-2,2-dimethylbutoxy)-5-methylphenyl]-5-methyl-4,5-dihydro-2H-pyridazin-3-one] | 3.6
35 | CC1CC(=O)NN=C1c1ccc(OCCCCO)c(F)c1F (stereo not drawn) [Example 82, 6-[2,3-Difluoro-4-(4-hydroxybutoxy)phenyl]-5-methyl-4,5-dihydro-2H-pyridazin-3-one] | 6
36 | C=Cc1c(OCC(O)CC)ccc(C2=NNC(=O)CC2C)c1F (stereo not drawn) [Example 67, 6-[2-Fluoro-4-(2-hydroxybutoxy)-3-vinylphenyl]-5-methyl-4,5-dihydro-2H-pyridazin-3-one] | 3.6
